{"source": "patent US20080187927A1", "about": "“USING HUG1 PROMOTER AND A REPORTER GENE TO DETECT GENOTOXICITY AND GENOPROTECTION” (priority 2006, published 2008)", "key": {"SPY1101 (HUG1P-GFP)": {"tested_on": "SPY1101 (HUG1P-GFP)", "from_the_text": "Yeast having a HUG1-GFP promoter/reporter construct (called SPY1101; genotype is W303 MA:Ta/a ura3-52/ura3-52 his3::hisG/his3::hisG leu2::hisG/leu2::hisG HUG1P-GFP::HIS3/HUG1P-HUG1) were derived from S. cerevisiae strain SPY810 (wild-type yeast; genotype is W303 MATa/a ura3-52/ura3-52 his3::hisG/his3::hisG/leu2::hisG/leu2::hisG) using a PCR-based gene deletion method. Longtine M, et al., “Additional modules for versatile and economical PCR-based gene deletion and modification in Saccharomyces cerevisiae,” Yeast 14:953-961 (1998), incorporated herein by reference as if set forth in its entirety. Briefly, plasmid pFA6a-GFP(S65T)-His3MX6 (kindly provided by John Pringle at The University of North Carolina at Chapel Hill (Chapel Hill, N.C.); see also, Longtine et al., supra.), which contains GFP-S65T, was isolated from Escherichia coli DHα with a QIAprep Spin Miniprep Kit (Qiagen; Santa Clarita, Calif.).\nYeast from Example 1 (SPY1101) were exposed to the genotoxins shown in Table 2, which included alkylating agents, oxidizing agents, ribonucleotide reductase inhibitors, UV mimetic agents, glycopeptide antibiotics, quinoline-based alkaloids and ionizing radiation. Each genotoxin was added directly to a culture of SPY1101. Fresh phleomycin (Sigma) was aliquoted in water at a concentration of 20 mg/ml and stored at −20° C. until culture exposure. Likewise, CPT (Sigma) was aliquoted in dimethylsulfoxide (DMSO) at a concentration of 10 mg/ml and stored at −20° C. until culture exposure. All samples exposed to CPT were adjusted with DMSO, such that the final concentration of DMSO in the culture was 1% (v/v), regardless of CPT dose. γ-ray exposure was done using a Cs^137 source (exposure was 7 Gy/min and ended when the desired dose was reached). For all genotoxins (except γ-ray), exposure was continuous.\nAll DNA damage experiments included a minimum of three independent trials. SPY1101 were grown in rich medium (see, Sherman, supra) at 30° C. and with gentle shaking at 250 rpm to mid log-phase and then diluted to an OD600 of 0.1. After dilution, the culture was divided into 10 ml aliquots for exposure to one of the DNA damaging agents listed above. One culture aliquot was treated as a control and received no genotoxin, while the other aliquots each received one of seven different doses of the genotoxin, as listed in Table 2. In addition, SPY810 (wild-type control) were similarly treated. All cultures were then returned to 30° C. for incubation.\nOne hour after exposure, 1 ml of each culture was removed, and the OD600 was recorded to monitor culture growth. The cells were washed in PBS, re-suspended in fresh PBS to an OD600 of 0.2 and then placed in the dark on ice until flow cytometry analysis. This process was repeated every hour until eight hours had passed since the initial genotoxin exposure. The process was also repeated at twenty-four hours after initial genotoxin exposure.\nFlow cytometry analysis was conducted as follows. For each replicate, at least 10,000 cells were analyzed for fluorescence using a flow cytometer (Becton Dickinson; Franklin Lakes, N.J.), and GFP induction analysis was performed with CellQuest™ and Flow-Jo software. Surviving cells were defined as whole cells (measured with light scattering) with intact cellular membranes (measured by exclusion of propidium iodide). All surviving cells were gated and used to measure GFP expression of the population. GFP expression histograms were prepared with WinMDI (available on the world wide web), using a live/dead gate based on propidium iodide exclusion. Histograms were created using a smoothing setting of 5.\nSPY1101 were also exposed to general cell stress. All general cell stress experiments consisted of a minimum of three independent trials. SPY1101 were grown in rich medium at 30° C. and with gentle shaking at 250 rpm to mid log-phase and then diluted to an OD600 of 0.1. After dilution, the culture was divided into aliquots."}, "[1]": {"tested_on": "SPY1105 (mag1Δ/mre11bΔ, HUG1P-GFP)", "quoted_text": "(§1) Briefly, two hours after exposure, 1 ml of each culture-was removed and the OD600 was recorded to monitor cell proliferation. The cells were then washed in PBS and re-suspended to an OD600 of 0.2, and placed in the dark on ice until flow cytometry analysis. This process was repeated after 4, 6 and 8 hours after exposure."}, "[2]": {"tested_on": "SPY1103 (mre11aΔ, HUG1P-GFP)", "quoted_text": "Yeast having a MRE11 deletion (SPY1103; also called mre11aΔ) were created from SPY1101.\nas §1"}, "SPY810 (wild-type yeast)": {"tested_on": "SPY810 (wild-type yeast)", "assay": "Fluorescence of wild-type control yeast SPY810 after genotoxin exposure", "assay_type": "cell-based, S. cerevisiae", "conditions": "0.01% MMS for six hours", "method": "In addition, SPY810 (wild-type control) were similarly treated.\nFlow cytometry analysis was conducted as follows. […] Histograms were created using a smoothing setting of 5."}, "SPY1103 (mre11aΔ)": {"tested_on": "SPY1103 (mre11aΔ)", "assay": "Viability of SPY1103 after genotoxin exposure", "assay_type": "cell-based, S. cerevisiae", "conditions": "exposed to MMS"}, "[3]": {"tested_on": "SPY1102 (mag1Δ, HUG1P-GFP)", "quoted_text": "as §1"}, "SPY1102 (mag1Δ)": {"tested_on": "SPY1102 (mag1Δ)", "assay": "Viability of SPY1102 after genotoxin exposure", "assay_type": "cell-based, S. cerevisiae", "conditions": "after four hours of exposure"}}, "note": "Where a name gives a salt, the structure may show the parent alone. Read-outs that look alike come from different tables or passages of the source.", "data": [{"smiles": "Cl", "note": "[HCl]", "values": [{"measurement": "maximum induction of GFP fluorescence", "setting": "SPY1101 (HUG1P-GFP); 1, 5, 10 or 15% (v/v) 1 N HCl, positive threshold >2 fold", "value": 1.5, "unit": "fold"}]}, {"smiles": "COS(C)(=O)=O", "note": "[MMS, methyl methanesulfonate]", "values": [{"measurement": "relative fluorescence induction", "setting": "[1]; 0.005% MMS (peak)", "value": 49, "unit": "fold"}, {"measurement": "Relative Fluorescence", "setting": "[1]; dose 0.0001%, exposure 4 h", "value": 2.2}, {"measurement": "fluorescence induction at peak fluorescence", "setting": "[2]; MMS, at its peak fluorescence", "value": 49, "unit": "fold"}, {"measurement": "Relative Fluorescence", "setting": "[2]; dose 0.0005%, exposure 6 h", "value": 2.7}, {"measurement": "fluorescence of wild type control", "setting": "SPY810 (wild-type yeast)", "value": "did not fluoresce"}, {"measurement": "Relative Fluorescence", "setting": "SPY1101 (HUG1P-GFP); 0.0005% MMS (dose-response)", "value": 4}, {"measurement": "increase of fluorescence compared to untreated cells", "setting": "SPY1101 (HUG1P-GFP); 0.0005% MMS, after 6 hours", "value": 2.4, "unit": "fold"}, {"measurement": "fluorescence upregulation", "setting": "SPY1101 (HUG1P-GFP); 0.005% MMS", "value": 97, "unit": "fold"}, {"measurement": "optimum (peak) fluorescence", "setting": "SPY1101 (HUG1P-GFP); 0.01% MMS", "value": 1.48, "unit": "fold"}, {"measurement": "increase of fluorescence (minimum induction time)", "setting": "SPY1101 (HUG1P-GFP); 0.01% MMS, after 75 minutes", "value": 3, "unit": "fold"}, {"measurement": "Relative Fluorescence", "setting": "SPY1101 (HUG1P-GFP); dose 0.0005%, exposure 6 h", "value": 2.4}, {"measurement": "viability compared to SPY1101", "setting": "SPY1103 (mre11aΔ)", "value": "no difference in viability"}, {"measurement": "Relative Fluorescence", "setting": "[3]; 0.0005% MMS", "value": 34}, {"measurement": "peak fluorescence", "setting": "[3]; 0.005% MMS", "value": 154, "unit": "fold"}, {"measurement": "Relative Fluorescence", "setting": "[3]; dose 0.0001%, exposure 4 h", "value": 3.0}, {"measurement": "viability compared to SPY810 or SPY1101", "setting": "SPY1102 (mag1Δ)", "value": "less viable"}]}, {"smiles": "C=O", "note": "[formaldehyde]", "values": [{"measurement": "dose-dependent GFP expression", "setting": "SPY1101 (HUG1P-GFP); doses of Table 2, up to 24 h", "value": "No dose-dependent induction of GFP expression"}]}]}
